Blank lines part the entries; values can stand above or below the compound they belong to. Calls of active or inactive are those of the source.
What was measured:
[1] = molecular target: T1, E3 ubiquitin-protein ligase XIAP (Homo sapiens, UniProt P98170); test: Counter Screen using XIAP-Bir3 for Chemical Antagonists of Bir1/2 domains of IAP-family anti-apoptotic proteins. [Related pubchem assays (depositor defined):AID1018, AID1449, AID1514, AID1638, AID1749, AID1750, AID488957, AID488963]
[2] = molecular target: T1, E3 ubiquitin-protein ligase XIAP; test: small molecules displacing peptide from XIAP – biochemical, IAP family, fluorescence polarization (AID 1018); format: functional
[3] = molecular target: C-C chemokine receptor type 6 (Homo sapiens, UniProt P51684); test: antagonism of CCR6 beta-arrestin recruitment – cell-based, luminescent beta-arrestin readout, dose response (AID 504728); format: functional
Chain of C-C chemokine receptor type 6 (P51684 whole entry): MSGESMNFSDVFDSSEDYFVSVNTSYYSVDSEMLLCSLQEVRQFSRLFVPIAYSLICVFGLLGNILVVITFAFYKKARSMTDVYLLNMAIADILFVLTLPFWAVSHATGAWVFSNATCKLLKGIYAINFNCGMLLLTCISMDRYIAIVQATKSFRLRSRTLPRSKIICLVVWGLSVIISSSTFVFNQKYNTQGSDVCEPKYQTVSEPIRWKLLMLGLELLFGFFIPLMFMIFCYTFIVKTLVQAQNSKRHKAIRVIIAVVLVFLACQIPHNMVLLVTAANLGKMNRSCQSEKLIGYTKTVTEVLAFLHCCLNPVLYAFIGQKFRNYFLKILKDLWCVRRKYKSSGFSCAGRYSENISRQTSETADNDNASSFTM

CAAX prenyl protease 2 = molecular target: T2, CAAX prenyl protease 2 (Saccharomyces cerevisiae S288c, UniProt Q03530); format: biochemical
T2 sequence (Q03530 whole entry): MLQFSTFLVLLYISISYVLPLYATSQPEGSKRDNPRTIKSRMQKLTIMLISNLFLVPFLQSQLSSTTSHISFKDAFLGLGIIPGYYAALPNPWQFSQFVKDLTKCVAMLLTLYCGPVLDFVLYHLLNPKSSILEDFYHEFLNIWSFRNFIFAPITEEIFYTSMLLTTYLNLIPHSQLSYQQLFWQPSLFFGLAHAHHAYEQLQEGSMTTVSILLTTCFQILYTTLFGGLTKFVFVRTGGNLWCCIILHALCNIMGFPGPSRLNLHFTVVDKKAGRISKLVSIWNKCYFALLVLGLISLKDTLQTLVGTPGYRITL

Beta-galactosidase = Beta-galactosidase (Escherichia coli, UniProt Q8VNN2); test: detection-enzyme interference by beta-gal modulators – biochemical, E. coli enzyme, set 3, artefact control for CCR6 antagonist project, dose response (AID 504712); format: functional
CAAX prenyl protease 1 = molecular target: T3, CAAX prenyl protease 1 (Saccharomyces cerevisiae S288c, UniProt P47154); test: yeast CAAX protease Ste24 inhibition – biochemical, S. cerevisiae, plate reader, cherry-pick, dose response (AID 488815)
T3 sequence (P47154 whole entry): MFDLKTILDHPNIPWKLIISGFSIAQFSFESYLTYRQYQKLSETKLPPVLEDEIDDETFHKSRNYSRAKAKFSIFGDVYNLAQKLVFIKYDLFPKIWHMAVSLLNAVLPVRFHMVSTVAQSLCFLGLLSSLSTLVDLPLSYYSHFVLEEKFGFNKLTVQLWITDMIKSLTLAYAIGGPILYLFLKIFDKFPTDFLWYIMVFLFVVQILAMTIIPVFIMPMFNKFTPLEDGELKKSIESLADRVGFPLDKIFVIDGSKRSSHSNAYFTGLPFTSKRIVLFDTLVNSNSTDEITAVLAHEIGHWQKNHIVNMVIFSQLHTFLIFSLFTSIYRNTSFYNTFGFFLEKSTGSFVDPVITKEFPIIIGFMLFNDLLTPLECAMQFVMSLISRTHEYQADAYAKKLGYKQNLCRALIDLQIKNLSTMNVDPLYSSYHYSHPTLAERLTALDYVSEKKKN

[4] = molecular target: DNA dC->dU-editing enzyme APOBEC-3A (Homo sapiens, UniProt P31941); test: A3A deaminase inhibition for selectivity – biochemical, dose response (AID 504722); format: functional
Chain of DNA dC->dU-editing enzyme APOBEC-3A (P31941 whole entry): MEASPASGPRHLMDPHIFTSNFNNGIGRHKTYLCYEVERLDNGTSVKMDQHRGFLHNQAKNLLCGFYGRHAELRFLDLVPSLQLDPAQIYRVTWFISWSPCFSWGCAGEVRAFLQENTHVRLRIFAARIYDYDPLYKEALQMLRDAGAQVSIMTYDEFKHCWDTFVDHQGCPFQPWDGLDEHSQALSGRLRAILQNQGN

[5] = molecular target: Glucose-6-phosphate 1-dehydrogenase (Homo sapiens, UniProt P11413); test: inhibition of Homo sapiens G6PD, dose series – biochemical, fluorescence, selectivity assay for P. falciparum G6PD inhibitor project, dose response (AID 504792); format: functional
Chain of Glucose-6-phosphate 1-dehydrogenase (P11413 whole entry): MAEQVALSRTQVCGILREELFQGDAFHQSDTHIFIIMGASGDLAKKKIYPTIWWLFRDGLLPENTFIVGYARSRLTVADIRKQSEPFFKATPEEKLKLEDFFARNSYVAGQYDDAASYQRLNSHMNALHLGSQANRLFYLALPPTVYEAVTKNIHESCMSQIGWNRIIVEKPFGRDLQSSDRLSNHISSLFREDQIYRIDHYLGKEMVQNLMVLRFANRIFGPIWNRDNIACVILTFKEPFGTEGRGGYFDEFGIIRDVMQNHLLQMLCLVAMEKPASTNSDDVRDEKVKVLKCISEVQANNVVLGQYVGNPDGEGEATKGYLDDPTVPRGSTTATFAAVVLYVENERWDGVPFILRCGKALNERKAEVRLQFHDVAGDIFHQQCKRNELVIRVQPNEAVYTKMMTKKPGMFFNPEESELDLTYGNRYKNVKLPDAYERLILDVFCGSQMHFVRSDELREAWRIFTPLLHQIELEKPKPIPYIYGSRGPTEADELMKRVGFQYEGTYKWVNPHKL

Hexokinase HKDC1 = molecular target: T4, Hexokinase HKDC1 (Homo sapiens, UniProt Q2TB90); test: activation of HKDC1 glucose phosphorylation – biochemical, W721R variant, dose response (AID 504730); format: functional
T4 sequence (Q2TB90 whole entry): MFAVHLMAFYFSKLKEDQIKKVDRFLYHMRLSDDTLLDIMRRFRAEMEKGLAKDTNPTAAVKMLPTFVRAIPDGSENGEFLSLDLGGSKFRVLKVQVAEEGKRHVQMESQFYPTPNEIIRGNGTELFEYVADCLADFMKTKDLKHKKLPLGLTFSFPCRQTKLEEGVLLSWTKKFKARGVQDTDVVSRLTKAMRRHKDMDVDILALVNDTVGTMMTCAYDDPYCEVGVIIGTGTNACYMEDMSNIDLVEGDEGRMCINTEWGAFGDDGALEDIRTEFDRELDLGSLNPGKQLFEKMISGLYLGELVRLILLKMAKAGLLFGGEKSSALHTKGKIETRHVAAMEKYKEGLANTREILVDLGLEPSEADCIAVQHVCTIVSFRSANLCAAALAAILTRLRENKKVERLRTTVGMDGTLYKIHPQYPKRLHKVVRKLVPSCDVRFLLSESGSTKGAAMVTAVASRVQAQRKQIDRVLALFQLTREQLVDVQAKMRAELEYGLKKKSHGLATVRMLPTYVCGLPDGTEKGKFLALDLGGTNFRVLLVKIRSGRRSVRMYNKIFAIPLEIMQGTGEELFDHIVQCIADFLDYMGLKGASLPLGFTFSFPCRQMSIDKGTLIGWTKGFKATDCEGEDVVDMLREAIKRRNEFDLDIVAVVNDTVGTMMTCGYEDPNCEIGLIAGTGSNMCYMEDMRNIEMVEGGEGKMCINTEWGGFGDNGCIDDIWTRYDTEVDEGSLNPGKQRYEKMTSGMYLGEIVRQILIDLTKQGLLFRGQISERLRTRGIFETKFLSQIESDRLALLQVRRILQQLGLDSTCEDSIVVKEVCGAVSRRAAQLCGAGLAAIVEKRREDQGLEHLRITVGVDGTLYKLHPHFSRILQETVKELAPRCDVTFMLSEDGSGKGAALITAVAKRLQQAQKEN

[6] = molecular target: DNA dC->dU-editing enzyme APOBEC-3G (Homo sapiens, UniProt Q9HC16); test: Dose Response confirmation of small molecule APOBEC3G DNA Deaminase Inhibitors via a fluorescence-based single-stranded DNA deaminase assay. [Related pubchem assays (depositor defined):AID493012, AID493028]; format: functional
Chain of DNA dC->dU-editing enzyme APOBEC-3G (Q9HC16 whole entry): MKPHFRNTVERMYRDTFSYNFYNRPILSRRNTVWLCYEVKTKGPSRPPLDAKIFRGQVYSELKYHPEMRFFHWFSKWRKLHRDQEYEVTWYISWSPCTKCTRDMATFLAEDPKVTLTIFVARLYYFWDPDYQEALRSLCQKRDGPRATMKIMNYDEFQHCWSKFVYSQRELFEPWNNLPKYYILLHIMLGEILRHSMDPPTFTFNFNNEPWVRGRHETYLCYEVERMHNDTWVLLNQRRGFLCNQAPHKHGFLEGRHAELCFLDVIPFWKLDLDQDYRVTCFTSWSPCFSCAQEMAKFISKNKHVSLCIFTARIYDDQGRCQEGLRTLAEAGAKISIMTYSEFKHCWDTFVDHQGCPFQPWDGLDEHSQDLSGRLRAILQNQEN

Hexokinase-1 = molecular target: T5, Hexokinase-1 (Homo sapiens, UniProt P19367); test: HK1 enzyme activation by HKDC1 hits – biochemical, selectivity assay for HKDC1 activator project, dose response (AID 504762); format: functional
T5 sequence (P19367 whole entry): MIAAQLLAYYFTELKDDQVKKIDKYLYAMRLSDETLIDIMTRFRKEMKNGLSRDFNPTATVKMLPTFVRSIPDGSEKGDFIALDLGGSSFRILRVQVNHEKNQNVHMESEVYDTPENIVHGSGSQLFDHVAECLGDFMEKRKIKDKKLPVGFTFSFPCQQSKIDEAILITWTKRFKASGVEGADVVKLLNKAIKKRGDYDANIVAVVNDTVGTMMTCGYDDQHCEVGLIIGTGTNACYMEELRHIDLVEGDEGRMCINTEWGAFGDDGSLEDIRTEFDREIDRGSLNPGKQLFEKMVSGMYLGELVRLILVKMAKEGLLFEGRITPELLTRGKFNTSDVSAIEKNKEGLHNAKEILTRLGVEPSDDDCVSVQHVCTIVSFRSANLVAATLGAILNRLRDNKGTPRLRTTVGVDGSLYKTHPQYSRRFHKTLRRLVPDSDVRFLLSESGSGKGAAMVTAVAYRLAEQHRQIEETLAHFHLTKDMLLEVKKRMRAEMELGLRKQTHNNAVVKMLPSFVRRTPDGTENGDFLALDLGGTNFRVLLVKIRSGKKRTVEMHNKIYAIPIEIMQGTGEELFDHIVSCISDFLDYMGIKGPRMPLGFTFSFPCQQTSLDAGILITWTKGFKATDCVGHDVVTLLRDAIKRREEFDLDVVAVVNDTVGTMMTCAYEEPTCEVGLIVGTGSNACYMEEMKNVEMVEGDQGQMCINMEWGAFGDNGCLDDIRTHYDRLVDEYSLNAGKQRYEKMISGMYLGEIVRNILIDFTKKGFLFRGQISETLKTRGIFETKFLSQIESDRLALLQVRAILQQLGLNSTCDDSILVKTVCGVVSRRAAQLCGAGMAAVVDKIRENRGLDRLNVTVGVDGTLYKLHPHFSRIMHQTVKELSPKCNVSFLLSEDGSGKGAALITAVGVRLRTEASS

[7] = decrease of insulin promoter-GFP reporter – imaging, high-content screening, mouse beta cells (AID 1628); format: functional; details: MIN6
[8] = MIN6 cell viability loss – mouse insulinoma, cytotoxicity control, dose response (AID 2122); format: functional;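 also: confirmatory high-throughput counterscreen run to flag cytotoxic compounds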
[9] = Luminescence Cell-Based Dose Retest to Confirm Inhibitors of Cancer Stem Cells. [Related pubchem assays (depositor defined):AID2717, AID2721]; format: functional; details: Homo sapiens
[10] = molecular target: Delta-type opioid receptor (Homo sapiens, UniProt P41143); test: Counterscreen for agonists of heterodimerization of the mu 1 (OPRM1) and delta 1 (OPRD1) opioid receptors: Luminescence-based cell-based high throughput dose response assay to identify agonists of OPRD1 homodimerization. [Related pubchem assays (depositor defined):AID504326, AID504355, AID504692, AID504904, AID504905]; format: functional
Chain of Delta-type opioid receptor (P41143 whole entry): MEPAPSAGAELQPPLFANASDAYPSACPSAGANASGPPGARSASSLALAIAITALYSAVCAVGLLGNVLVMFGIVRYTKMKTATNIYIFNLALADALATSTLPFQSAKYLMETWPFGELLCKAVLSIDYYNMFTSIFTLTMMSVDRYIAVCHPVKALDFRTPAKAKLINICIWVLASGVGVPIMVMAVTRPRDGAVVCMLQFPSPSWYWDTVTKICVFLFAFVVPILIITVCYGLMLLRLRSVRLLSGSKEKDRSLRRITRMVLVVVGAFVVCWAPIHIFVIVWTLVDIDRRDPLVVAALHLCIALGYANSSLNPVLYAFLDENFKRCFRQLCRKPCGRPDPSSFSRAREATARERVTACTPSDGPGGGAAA

Mu-type opioid receptor = Mu-type opioid receptor (Homo sapiens, UniProt P35372); test: Counterscreen for agonists of heterodimerization of the mu 1 (OPRM1) and delta 1 (OPRD1) opioid receptors: Luminescence-based cell-based high throughput dose response assay to identify agonists of OPRM1 homodimerization.; format: functional;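 also: U2OS cells expressing OPRM1 and beta-arrestin as split beta-galactosidase partners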
Chain of Mu-type opioid receptor (P35372 whole entry): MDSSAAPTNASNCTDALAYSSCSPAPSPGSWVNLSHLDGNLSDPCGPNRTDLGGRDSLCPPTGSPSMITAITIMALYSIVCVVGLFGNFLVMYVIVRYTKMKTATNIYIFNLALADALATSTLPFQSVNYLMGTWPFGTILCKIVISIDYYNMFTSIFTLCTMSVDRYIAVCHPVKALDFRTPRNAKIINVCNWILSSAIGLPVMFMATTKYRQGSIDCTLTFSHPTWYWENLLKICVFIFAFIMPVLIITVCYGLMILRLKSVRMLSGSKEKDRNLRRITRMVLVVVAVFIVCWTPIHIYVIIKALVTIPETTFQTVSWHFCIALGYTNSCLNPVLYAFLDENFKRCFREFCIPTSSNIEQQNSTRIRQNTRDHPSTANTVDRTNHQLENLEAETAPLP

[11] = molecular target: 5-hydroxytryptamine receptor 5A (Homo sapiens, UniProt P47898); test: Counterscreen for agonists of OPRM1-OPRD1 heterodimerization: luminescence-based cell-based high throughput dose response assay to identify agonists of 5-hydroxytryptamine (serotonin) 5A receptor (HTR5A). [Related pubchem assays (depositor defined):AID504326, AID504355, AID504692, AID504904, AID504905]; format: functional
Chain of 5-hydroxytryptamine receptor 5A (P47898 whole entry): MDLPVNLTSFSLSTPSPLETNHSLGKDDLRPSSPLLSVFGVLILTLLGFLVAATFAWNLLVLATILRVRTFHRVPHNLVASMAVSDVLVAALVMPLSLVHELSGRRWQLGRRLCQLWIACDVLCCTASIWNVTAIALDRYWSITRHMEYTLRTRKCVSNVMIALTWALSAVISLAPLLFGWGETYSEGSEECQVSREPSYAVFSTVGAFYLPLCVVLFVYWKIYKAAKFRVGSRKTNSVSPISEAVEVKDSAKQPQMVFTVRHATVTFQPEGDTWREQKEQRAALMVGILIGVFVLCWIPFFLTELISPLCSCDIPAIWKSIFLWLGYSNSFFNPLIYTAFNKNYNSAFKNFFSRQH

[12] = viability of uninfected HEp-2 cells – cell-based, HTS, cytotoxicity control for RSV inhibitor project, dose response (AID 2410); format: functional; details: human respiratory syncytial virus
[13] = molecular target: T6, Mannose-6-phosphate isomerase (Homo sapiens, UniProt P34949); test: phosphomannose isomerase inhibition – biochemical, fluorescence intensity, confirmation (AID 1535)
T6 sequence (P34949 whole entry): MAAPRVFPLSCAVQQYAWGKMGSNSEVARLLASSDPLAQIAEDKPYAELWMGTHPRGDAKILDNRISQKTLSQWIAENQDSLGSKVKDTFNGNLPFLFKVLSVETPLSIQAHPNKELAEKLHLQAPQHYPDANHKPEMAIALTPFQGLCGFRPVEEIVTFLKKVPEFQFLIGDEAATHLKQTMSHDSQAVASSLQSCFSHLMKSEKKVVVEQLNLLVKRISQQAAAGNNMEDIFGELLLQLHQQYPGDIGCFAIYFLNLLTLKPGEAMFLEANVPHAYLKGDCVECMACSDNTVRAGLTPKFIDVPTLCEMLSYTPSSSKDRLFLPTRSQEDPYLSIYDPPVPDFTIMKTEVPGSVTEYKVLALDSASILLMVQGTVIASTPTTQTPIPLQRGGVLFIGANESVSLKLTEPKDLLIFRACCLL

Phosphomannomutase 2 = Phosphomannomutase 2 (Homo sapiens, UniProt O15305); test: Counter screen SAR assay for PMM2 inhibitors via a fluorescence intensity assay. [Related pubchem assays (depositor defined):AID1545, AID1574]
Chain of Phosphomannomutase 2 (O15305 whole entry): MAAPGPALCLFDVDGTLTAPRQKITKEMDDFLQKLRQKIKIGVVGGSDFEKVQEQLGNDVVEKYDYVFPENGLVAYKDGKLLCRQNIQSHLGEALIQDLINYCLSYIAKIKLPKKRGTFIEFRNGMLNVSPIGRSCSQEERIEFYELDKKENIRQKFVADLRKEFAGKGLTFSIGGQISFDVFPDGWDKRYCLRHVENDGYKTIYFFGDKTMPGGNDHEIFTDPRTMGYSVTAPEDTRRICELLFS

[14] = molecular target: Phosphoethanolamine/phosphocholine phosphatase (Homo sapiens, UniProt Q8TCT1); test: SAR assay for compounds that inhibit PHOSPHO1. [Related pubchem assays (depositor defined):AID1545, AID1565, AID1574]
Chain of Phosphoethanolamine/phosphocholine phosphatase (Q8TCT1 whole entry): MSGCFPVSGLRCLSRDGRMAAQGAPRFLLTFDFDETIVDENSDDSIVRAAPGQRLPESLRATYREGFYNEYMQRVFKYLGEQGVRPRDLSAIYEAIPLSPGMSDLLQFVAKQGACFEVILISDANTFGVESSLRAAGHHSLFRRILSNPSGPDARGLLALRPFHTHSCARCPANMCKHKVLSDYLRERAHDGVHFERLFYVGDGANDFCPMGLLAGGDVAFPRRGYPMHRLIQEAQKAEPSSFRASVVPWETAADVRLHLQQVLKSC

[15] = molecular target: G-protein coupled receptor 55 (Homo sapiens, UniProt Q9Y2T6); test: selective activators of receptor GPR55 – imaging, U2OS cells, beta-arrestin-GFP redistribution, primary screen (AID 1961); format: functional
Chain of G-protein coupled receptor 55 (Q9Y2T6 whole entry): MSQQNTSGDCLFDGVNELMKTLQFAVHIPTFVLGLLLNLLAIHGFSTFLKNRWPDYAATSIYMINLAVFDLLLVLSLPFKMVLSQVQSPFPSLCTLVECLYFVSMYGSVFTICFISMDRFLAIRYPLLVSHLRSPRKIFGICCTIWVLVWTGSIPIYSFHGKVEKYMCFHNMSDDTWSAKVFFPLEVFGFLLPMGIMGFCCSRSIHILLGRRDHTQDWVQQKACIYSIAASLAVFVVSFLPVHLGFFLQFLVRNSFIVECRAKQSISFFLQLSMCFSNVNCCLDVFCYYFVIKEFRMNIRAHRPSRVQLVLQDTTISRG

T1 sequence (P98170 whole entry): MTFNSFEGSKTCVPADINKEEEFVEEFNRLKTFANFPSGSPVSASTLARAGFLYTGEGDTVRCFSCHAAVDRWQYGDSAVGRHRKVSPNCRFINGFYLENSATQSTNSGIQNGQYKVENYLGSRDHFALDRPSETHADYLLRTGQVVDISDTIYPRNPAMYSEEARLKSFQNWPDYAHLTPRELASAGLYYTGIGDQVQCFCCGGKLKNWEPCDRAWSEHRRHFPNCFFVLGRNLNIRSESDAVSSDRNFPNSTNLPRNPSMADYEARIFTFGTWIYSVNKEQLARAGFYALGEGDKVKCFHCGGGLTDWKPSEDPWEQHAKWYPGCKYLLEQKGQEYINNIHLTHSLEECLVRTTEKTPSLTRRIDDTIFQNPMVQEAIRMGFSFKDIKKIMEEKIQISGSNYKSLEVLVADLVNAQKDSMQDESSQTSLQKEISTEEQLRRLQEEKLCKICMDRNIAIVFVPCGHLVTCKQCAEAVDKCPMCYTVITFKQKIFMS

IC50 [1]: > 100 µM (inactive)
IC50 [2]: > 100 µM (not active)
Structure (SMILES): CCCc1nc2oc3cc(OC)ccc3c(=O)c2c(=O)n1Cc1ccco1

IC50 [3]: > 66.6 µM (inactive)
AC50 (CAAX prenyl protease 2): 8.3 µM (active)
IC50 (Beta-galactosidase): > 66.6 µM (inactive)
AC50 (CAAX prenyl protease 1): 1.6 µM (active)
Structure (SMILES): N#Cc1c(N2CCN(C(=O)c3ccccc3)CC2)nc(-c2ccccc2)c2c1CCCC2

Structure (SMILES): CC(NC(=O)c1sc2cc([N+](=O)[O-])ccc2c1Cl)C(C)(C)C (centres undefined)
IC50 [4]: > 100 µM (inactive)
IC50 [5]: > 80 µM (inactive)
EC50 (Hexokinase HKDC1): 23.6 µM (inactive)
IC50 [6]: 18.4 µM (active)
EC50 (Hexokinase-1): 46.8 µM (inactive)

Structure (SMILES): COC(=O)c1c(NC(=O)Cc2cccs2)sc2c1CCC(C)C2 (centres undefined)
IC50 [7]: 6.23 µM (active)
IC50 [8]: > 16 µM (inactive)
AC50 [9]: 2.78 µM (active)

EC50 [10]: > 92.5 µM (inactive)
EC50 (Mu-type opioid receptor): > 92.5 µM (inactive)
EC50 [11]: > 92.5 µM (inactive)
Structure (SMILES): COC(=O)CCCNC(=O)c1ccc(OC2CCN(CCc3ccccc3)CC2)cc1

IC50 [1]: > 100 µM (inactive)
IC50 [2]: > 100 µM (not active)
Structure (SMILES): Cc1ccc(C(C)NC(=O)/C(C#N)=C\c2c(C)[nH]c3ccccc23)cc1 (centres undefined)
CC50 [12]: 19.4 µM (active)

IC50 [13]: 12 µM (active)
IC50 (Phosphomannomutase 2): 1.26 µM (active)
IC50 [14]: 0.192 µM (active)
Structure (SMILES): O=c1c2c([N+](=O)[O-])cc([N+](=O)[O-])cc2sn1-c1ccc(F)c(Cl)c1

EC50 [15]: > 32 µM (inactive)
Structure (SMILES): COCCCN=C(S)NNC(=O)c1cccnc1
